The values that follow come from US12161722B2, “Bifunctional heterocyclic compound having BTK degradation function via ubiquitin proteasome pathway, and use thereof” (KOREA RESEARCH INSTITUTE OF CHEMICAL TECHNOLOGY, priority 2021, dated 2024).

Structures are written as SMILES.

T1 sequence (Q06187 whole entry): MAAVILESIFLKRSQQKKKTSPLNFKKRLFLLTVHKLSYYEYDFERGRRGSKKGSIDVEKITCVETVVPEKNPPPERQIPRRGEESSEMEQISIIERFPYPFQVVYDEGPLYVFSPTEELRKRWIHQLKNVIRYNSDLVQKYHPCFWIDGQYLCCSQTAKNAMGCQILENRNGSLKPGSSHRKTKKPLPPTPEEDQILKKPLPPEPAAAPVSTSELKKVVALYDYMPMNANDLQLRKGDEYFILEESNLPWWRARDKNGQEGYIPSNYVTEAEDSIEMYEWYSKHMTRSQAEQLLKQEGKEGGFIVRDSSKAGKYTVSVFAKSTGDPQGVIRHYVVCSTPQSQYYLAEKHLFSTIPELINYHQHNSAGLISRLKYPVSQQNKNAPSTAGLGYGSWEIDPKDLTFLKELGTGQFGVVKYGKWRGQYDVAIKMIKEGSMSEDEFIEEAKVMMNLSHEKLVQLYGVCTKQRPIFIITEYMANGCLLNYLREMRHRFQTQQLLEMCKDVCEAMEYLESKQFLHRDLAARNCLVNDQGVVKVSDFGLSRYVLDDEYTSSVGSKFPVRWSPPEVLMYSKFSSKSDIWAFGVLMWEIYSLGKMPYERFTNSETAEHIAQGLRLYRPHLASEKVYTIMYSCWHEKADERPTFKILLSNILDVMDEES

The test has as its target T1, WT BTK protein (Homo sapiens, UniProt Q06187).
T1 construct: measured for intracellular BTK protein levels by Western blotting; endogenous in cells; host or cells: TMD-8 or RAMOS cells
The test is described as follows: BTK protein degradation assay (Western blotting), WT BTK. The note with it: concentration range accounting for 50% degradation of WT BTK protein, TMD-8 or RAMOS cells, 24 hours. The test is classed as cell-based. The protocol: TMD-8, RAMOS, or 293T BTK MUT (C481S) cells were treated with the synthesized compounds and measured for intracellular BTK protein levels by Western blotting. The protocol of the experiment using TMD-8 cells is as follows.
TMD-8 cells were resuspended in an RPMI1640 medium (Hyclone, SH30027.01, 10% FBS (Hyclone, SV30207.02), 1% penicillin-streptomycin (Welgene, LS 202-02) and the cell suspension was seeded at a density of 1×10^6 cells/mL in an amount of 1 mL per well into 12-well plates.
The 12-well plates were treated as follows. A 10 mM stock was 1/10 diluted in series with DMSO ([…]) to form final concentrations of 10, 1, 0.1, 0.01, 0.001, and 0.0001 mM. The compounds with such concentrations were applied to cells, followed by harvesting the cells 24 hours later. For a negative control, a 1/10 dilution of DMSO in the medium (3 mL DMSO+27 mL medium) was used.
The 1-mL cell culture in each well was passed many times through a pipette and then transferred into a 1.5-mL microtube before centrifugation (500 g, 5 min, 4° C.). The supernatant was discarded and the cell pellet was washed with PBS. After centrifugation (500 g, 5 min, 4° C.) again, the supernatant was discarded and the cell pellet was taken.
A lysis buffer was prepared as follows. RIPA buffer (Biosesang, RC2038-050-00)+0.5 mM PMSF (SIGMA, P7626)+1×Protease/Phosphatase Inhibitor (Cell signaling, 5872S) was added in an amount […] per well and left for 30 minutes on ice (vortexing at 0 and 30 minutes) before sonication (5 cycles of pulse for 10 seconds and rest for 30 seconds, 70% amplification). The supernatant obtained by centrifugation (15000 g, 15 min, 4° C.) was transferred into a new microtube. Cells in each well of 96-well plates were 1/2 diluted with the RIPA buffer and incubated at 37° C. for 30 minutes with […] of a 50:1 mixture of BCA reagents A and B in BCA Protein Assay Kit (iNtRON, 21071). After being cooled for 10 minutes, the 96-well plates were measured for absorbance at 562 nm on the BioTek, SYNERGY H1 microplate reader. Samples were prepared by protein quantification based on the absorbance measurements and then boiled at 70° C. for 10 minutes. The sample buffer used in the case was prepared by mixing a NuPAGE or a Bolt 4× sample buffer (Invitrogen) and its 10× sample reducing agent depending on the gel to be used, and protein dilution was made in a RIPI buffer.
The samples were loaded in the same amount into a NuPAGE or Bolt Bis-tris 4-12% gradient gel and allowed to run therein (200 V, 35 minutes). The separated proteins were transferred onto a […] NC membrane, using Trans-blot Turbo (BIO-RAD) (1.3 A constant, 25V limit, 15 minutes). The membrane was blocked at room temperature for 1 hour with skim milk or Intercept Blocking Buffer (LI-COR, 927-60001):0.1% TBST=1:1. The membrane was incubated with Anti BTK Rabbit (1:1,000 in 5% skim milk/0.2% TBST, size: 77 kDa, Cell signaling Technology) at 4° C. overnight O/N or at room temperature for 2 hours and with Anti GAPDH Rabbit (1:10,000 in 5% BSA/0.2% TBST, size: 36 kDa, GENETEX) and Anti β-actin mouse (1:10,000 in 5% BSA/0.2% TBST, RT, size: 43 kDa, GENETEX) at room temperature for 1 or 3 hours. Then, the membrane was washed three times with 0.5% TBST for 5 minutes each time before incubation with the second antibody Anti-Rabbit IgG (1:5,000 in 5% Skim milk/TBST, CST), IRDye® 800CW Goat anti-Rabbit IgG Secondary Antibody (1:10,000 in 5% skim/TBST, RT 45 min), or IRDye® 680RD Goat anti-Mouse IgG Secondary Antibody (1:10,000 in 5% skim/TBST, RT 45 min) for 45 minutes at room temperature in a rocker. The membrane was washed five times with 0.5% TBST for 5 minutes in each time, followed by detection with LI-COR, Odyssey. In this regard, the detection proceeded, as it was, for house-keeping genes while using SuperSignal West Pico PLUS Chemiluminescent Substrate or SuperSignal West femto Maximum Sensitivity Substrate for BTK detection. […]
With `Cc1cccc(C)c1Nc1nn(C)c2nc(Nc3ccc4c(c3)CN(C(=O)[C@@H]3CCCN3C(=O)CN3CCN(c5ccc6c(c5)C(=O)N(C5CCC(=O)NC5=O)C6=O)CC3)CC4)ncc12` (stereo partly drawn) [Compound 33, 5-(4-(2-((S)-2-(7-((3-((2,6-Dimethylphenyl)amino)-1-methyl-1H-pyrazolo[3,4-d]pyrimidin-6-yl)amino)-1,2,3,4-tetrahydroisoquinoline-2-carbonyl)pyrrolidin-1-yl)-2-oxoethyl)piperazin-1-yl)-2-(2,6-dioxopiperidin-3-yl)isoindoline-1,3-dione], the DC50 was 10 to 1000 nM.

On to `Cc1cccc(C)c1Nc1nn(C)c2nc(Nc3ccc4c(c3)CN(C(=O)[C@@H]3CCCN3C(=O)COc3ccc5c(c3)C(=O)N(C3CCC(=O)NC3=O)C5=O)CC4)ncc12` (stereo partly drawn) [Compound 34, 5-(2-((S)-2-(7-((3-((2,6-Dimethylphenyl)amino)-1-methyl-1H-pyrazolo[3,4-d]pyrimidin-6-yl)amino)-1,2,3,4-tetrahydroisoquinoline-2-carbonyl)pyrrolidin-1-yl)-2-oxoethoxy)-2-(2,6-dioxopiperidin-3-yl)isoindoline-1,3-dione], for which the DC50 was 10 to 1000 nM.

In the case of `Cc1cccc(C)c1Nc1nn(C)c2nc(Nc3ccc4c(c3)CN(CC3CCN(C(=O)CNc5ccc6c(c5)C(=O)N(C5CCC(=O)NC5=O)C6=O)CC3)CC4)ncc12` (stereo not shown) [Compound 36, 5-((2-(4-((7-((3-((2,6-Dimethylphenyl)amino)-1-methyl-1H-pyrazolo[3,4-d]pyrimidin-6-yl)amino)-3,4-dihydroisoquinolin-2 (1H)-yl)methyl)piperidin-1-yl)-2-oxoethyl)amino)-2-(2,6-dioxopiperidin-3-yl)isoindoline-1,3-dione], the DC50 was 0.1 to 10 nM.

In the case of `Cc1cccc(C)c1Nc1nn(C)c2nc(Nc3ccc4c(c3)CN(CC3CN(C(=O)CN5CCN(c6ccc7c(c6)C(=O)N(C6CCC(=O)NC6=O)C7=O)CC5)C3)CC4)ncc12` (stereo not shown) [Compound 39, 5-(4-(2-(3-((7-((3-((2,6-Dimethylphenyl)amino)-1-methyl-1H-pyrazolo[3,4-d]pyrimidin-6-yl)amino)-3,4-dihydroisoquinolin-2 (1H)-yl)methyl)azetidin-1-yl)-2-oxoethyl)piperazin-1-yl)-2-(2,6-dioxopiperidin-3-yl)isoindoline-1,3-dione], the DC50 was in the range of 0.1 to 10 nM.

With `Cc1cccc(C)c1Nc1nn(C)c2nc(Nc3ccc4c(c3)CN(CC3CN(C(=O)C5CCN(c6ccc7c(c6)C(=O)N(C6CCC(=O)NC6=O)C7=O)CC5)C3)CC4)ncc12` (stereo not shown) [Compound 40, 5-(4-(3-((7-((3-((2,6-Dimethylphenyl)amino)-1-methyl-1H-pyrazolo[3,4-d]pyrimidin-6-yl)amino)-3,4-dihydroisoquinolin-2 (1H)-yl)methyl)azetidine-1-carbonyl)piperidin-1-yl)-2-(2,6-dioxopiperidin-3-yl)isoindoline-1,3-dione], the DC50 fell in the range of 0.1 to 10 nM.

As to `Cc1cccc(C)c1Nc1nn(C)c2nc(Nc3cccc(CNCC4CCN(c5ccc6c(c5)C(=O)N(C5CCC(=O)NC5=O)C6=O)CC4)c3)ncc12` (stereo not shown) [Compound 41, 5-(4-(((3-((3-((2,6-Dimethylphenyl)amino)-1-methyl-TH-pyrazolo[3,4-d]pyrimidin-6-yl)amino)benzyl)amino)methyl)piperidin-1-yl)-2-(2,6-dioxopiperidin-3-yl)isoindoline-1,3-dione], the DC50 lay within 10 to 1000 nM.

For `Cc1cccc(C)c1Nc1nn(C)c2nc(Nc3cccc(CNCC4CCN(C(=O)C5CCN(c6ccc7c(c6)C(=O)N(C6CCC(=O)NC6=O)C7=O)CC5)CC4)c3)ncc12` (stereo not shown) [Compound 42, 5-(4-(4-(((3-((3-((2,6-Dimethylphenyl)amino)-1-methyl-1H-pyrazolo[3,4-d]pyrimidin-6-yl)amino)benzyl)amino)methyl)piperidine-1-carbonyl)piperidin-1-yl)-2-(2,6-dioxopiperidin-3-yl)isoindoline-1,3-dione], the DC50 lay within 0.1 to 10 nM.

As to `Cc1cccc(C)c1Nc1nn(C)c2nc(Nc3ccc4c(c3)CN(C(=O)C3CCN(C(=O)COc5ccc6c(c5)C(=O)N(C5CCC(=O)NC5=O)C6=O)CC3)CC4)ncc12` (stereo not shown) [Compound 43, 5-(2-(4-(7-((3-((2,6-Dimethylphenyl)amino)-1-methyl-1H-pyrazolo[3,4-d]pyrimidin-6-yl)amino)-1,2,3,4-tetrahydroisoquinoline-2-carbonyl)piperidin-1-yl)-2-oxoethoxy)-2-(2,6-dioxopiperidin-3-yl)isoindoline-1,3-dione], the DC50 is 0.1 to 10 nM.

Consider `Cc1cccc(C)c1Nc1nn(C)c2nc(Nc3ccc4c(c3)CN(C(=O)C3CCN(C(=O)CN5CCN(c6ccc7c(c6)C(=O)N(C6CCC(=O)NC6=O)C7=O)CC5)CC3)CC4)ncc12` (stereo not shown) [Compound 44, 5-(4-(2-(4-(7-((3-((2,6-Dimethylphenyl)amino)-1-methyl-1H-pyrazolo[3,4-d]pyrimidin-6-yl)amino)-1,2,3,4-tetrahydroisoquinoline-2-carbonyl)piperidin-1-yl)-2-oxoethyl)piperazin-1-yl)-2-(2,6-dioxopiperidin-3-yl)isoindoline-1,3-dione], for which the DC50 lay within 0.1 to 10 nM.

In the case of `Cc1cccc(C)c1Nc1nn(C)c2nc(Nc3ccc4c(c3)CN(C(=O)C3CCN(C(=O)CNc5ccc6c(c5)C(=O)N(C5CCC(=O)NC5=O)C6=O)CC3)CC4)ncc12` (stereo not shown) [Compound 45, 5-((2-(4-(7-((3-((2,6-Dimethylphenyl)amino)-1-methyl-1H-pyrazolo[3,4-d]pyrimidin-6-yl)amino)-1,2,3,4-tetrahydroisoquinoline-2-carbonyl)piperidin-1-yl)-2-oxoethyl)amino)-2-(2,6-dioxopiperidin-3-yl)isoindoline-1,3-dione], the DC50 is 0.1 to 10 nM.

With `Cc1cccc(C)c1Nc1nn(C)c2nc(Nc3ccc4c(c3)CN(CC3CN(c5ccc6c(c5)C(=O)N(C5CCC(=O)NC5=O)C6=O)C3)CC4)ncc12` (stereo not shown) [Compound 47, 5-(3-((7-((3-((2,6-Dimethylphenyl)amino)-1-methyl-1H-pyrazolo[3,4-d]pyrimidin-6-yl)amino)-3,4-dihydroisoquinolin-2 (1H)-yl)methyl)azetidin-1-yl)-2-(2,6-dioxopiperidin-3-yl)isoindoline-1,3-dione], the DC50 was in the range of 0.1 to 10 nM.

With `Cc1cccc(C)c1Nc1nn(C)c2nc(Nc3ccc4c(c3)CN(CC3CCN(C(=O)COc5ccc6nnn(C7CCC(=O)NC7=O)c(=O)c6c5)CC3)CC4)ncc12` (stereo not shown) [Compound 48, 3-(6-(2-(4-((7-((3-((2,6-Dimethylphenyl)amino)-1-methyl-1H-pyrazolo[3,4-d]pyrimidin-6-yl)amino)-3,4-dihydroisoquinolin-2 (1H)-yl)methyl)piperidin-1-yl)-2-oxoethoxy)-4-oxobenzo[d][1,2,3]triazin-3 (4H)-yl)piperidin-2,6-one], the DC50 was in the range of 0.1 to 10 nM.

For `Cc1cccc(C)c1Nc1nn(C)c2nc(Nc3ccc4c(c3)CN(CC3CN(C(=O)COc5ccc6c(c5)C(=O)N(C5CCC(=O)NC5=O)C6=O)C3)CC4)ncc12` (stereo not shown) [Compound 49, 5-(2-(3-((7-((3-((2,6-Dimethylphenyl)amino)-1-methyl-1H-pyrazolo[3,4-d]pyrimidin-6-yl)amino)-3,4-dihydroisoquinolin-2 (1H)-yl)methyl)azetidin-1-yl)-2-oxoethoxy)-2-(2,6-dioxopiperidin-3-yl)isoindoline-1,3-dione], the DC50 was in the range of 10 to 1000 nM.
